This passage reports IC50 results from patent publication US20260015328A1, “ATM KINASE INHIBITORS” (Eberhard Karls Universität Tübingen, priority 2023, published 2026).

In the first test the target is isolated ATM kinase (Homo sapiens (Human), UniProt Q13315). The experiment in a line: FRET-based ATM activity assay at Reaction Biology Corp. (IC50^I). It counts as biochemical. The conditions noted are these: Table 13; read-out: IC50 [nM], IC50^I.
Chain of isolated ATM kinase (Q13315 whole entry): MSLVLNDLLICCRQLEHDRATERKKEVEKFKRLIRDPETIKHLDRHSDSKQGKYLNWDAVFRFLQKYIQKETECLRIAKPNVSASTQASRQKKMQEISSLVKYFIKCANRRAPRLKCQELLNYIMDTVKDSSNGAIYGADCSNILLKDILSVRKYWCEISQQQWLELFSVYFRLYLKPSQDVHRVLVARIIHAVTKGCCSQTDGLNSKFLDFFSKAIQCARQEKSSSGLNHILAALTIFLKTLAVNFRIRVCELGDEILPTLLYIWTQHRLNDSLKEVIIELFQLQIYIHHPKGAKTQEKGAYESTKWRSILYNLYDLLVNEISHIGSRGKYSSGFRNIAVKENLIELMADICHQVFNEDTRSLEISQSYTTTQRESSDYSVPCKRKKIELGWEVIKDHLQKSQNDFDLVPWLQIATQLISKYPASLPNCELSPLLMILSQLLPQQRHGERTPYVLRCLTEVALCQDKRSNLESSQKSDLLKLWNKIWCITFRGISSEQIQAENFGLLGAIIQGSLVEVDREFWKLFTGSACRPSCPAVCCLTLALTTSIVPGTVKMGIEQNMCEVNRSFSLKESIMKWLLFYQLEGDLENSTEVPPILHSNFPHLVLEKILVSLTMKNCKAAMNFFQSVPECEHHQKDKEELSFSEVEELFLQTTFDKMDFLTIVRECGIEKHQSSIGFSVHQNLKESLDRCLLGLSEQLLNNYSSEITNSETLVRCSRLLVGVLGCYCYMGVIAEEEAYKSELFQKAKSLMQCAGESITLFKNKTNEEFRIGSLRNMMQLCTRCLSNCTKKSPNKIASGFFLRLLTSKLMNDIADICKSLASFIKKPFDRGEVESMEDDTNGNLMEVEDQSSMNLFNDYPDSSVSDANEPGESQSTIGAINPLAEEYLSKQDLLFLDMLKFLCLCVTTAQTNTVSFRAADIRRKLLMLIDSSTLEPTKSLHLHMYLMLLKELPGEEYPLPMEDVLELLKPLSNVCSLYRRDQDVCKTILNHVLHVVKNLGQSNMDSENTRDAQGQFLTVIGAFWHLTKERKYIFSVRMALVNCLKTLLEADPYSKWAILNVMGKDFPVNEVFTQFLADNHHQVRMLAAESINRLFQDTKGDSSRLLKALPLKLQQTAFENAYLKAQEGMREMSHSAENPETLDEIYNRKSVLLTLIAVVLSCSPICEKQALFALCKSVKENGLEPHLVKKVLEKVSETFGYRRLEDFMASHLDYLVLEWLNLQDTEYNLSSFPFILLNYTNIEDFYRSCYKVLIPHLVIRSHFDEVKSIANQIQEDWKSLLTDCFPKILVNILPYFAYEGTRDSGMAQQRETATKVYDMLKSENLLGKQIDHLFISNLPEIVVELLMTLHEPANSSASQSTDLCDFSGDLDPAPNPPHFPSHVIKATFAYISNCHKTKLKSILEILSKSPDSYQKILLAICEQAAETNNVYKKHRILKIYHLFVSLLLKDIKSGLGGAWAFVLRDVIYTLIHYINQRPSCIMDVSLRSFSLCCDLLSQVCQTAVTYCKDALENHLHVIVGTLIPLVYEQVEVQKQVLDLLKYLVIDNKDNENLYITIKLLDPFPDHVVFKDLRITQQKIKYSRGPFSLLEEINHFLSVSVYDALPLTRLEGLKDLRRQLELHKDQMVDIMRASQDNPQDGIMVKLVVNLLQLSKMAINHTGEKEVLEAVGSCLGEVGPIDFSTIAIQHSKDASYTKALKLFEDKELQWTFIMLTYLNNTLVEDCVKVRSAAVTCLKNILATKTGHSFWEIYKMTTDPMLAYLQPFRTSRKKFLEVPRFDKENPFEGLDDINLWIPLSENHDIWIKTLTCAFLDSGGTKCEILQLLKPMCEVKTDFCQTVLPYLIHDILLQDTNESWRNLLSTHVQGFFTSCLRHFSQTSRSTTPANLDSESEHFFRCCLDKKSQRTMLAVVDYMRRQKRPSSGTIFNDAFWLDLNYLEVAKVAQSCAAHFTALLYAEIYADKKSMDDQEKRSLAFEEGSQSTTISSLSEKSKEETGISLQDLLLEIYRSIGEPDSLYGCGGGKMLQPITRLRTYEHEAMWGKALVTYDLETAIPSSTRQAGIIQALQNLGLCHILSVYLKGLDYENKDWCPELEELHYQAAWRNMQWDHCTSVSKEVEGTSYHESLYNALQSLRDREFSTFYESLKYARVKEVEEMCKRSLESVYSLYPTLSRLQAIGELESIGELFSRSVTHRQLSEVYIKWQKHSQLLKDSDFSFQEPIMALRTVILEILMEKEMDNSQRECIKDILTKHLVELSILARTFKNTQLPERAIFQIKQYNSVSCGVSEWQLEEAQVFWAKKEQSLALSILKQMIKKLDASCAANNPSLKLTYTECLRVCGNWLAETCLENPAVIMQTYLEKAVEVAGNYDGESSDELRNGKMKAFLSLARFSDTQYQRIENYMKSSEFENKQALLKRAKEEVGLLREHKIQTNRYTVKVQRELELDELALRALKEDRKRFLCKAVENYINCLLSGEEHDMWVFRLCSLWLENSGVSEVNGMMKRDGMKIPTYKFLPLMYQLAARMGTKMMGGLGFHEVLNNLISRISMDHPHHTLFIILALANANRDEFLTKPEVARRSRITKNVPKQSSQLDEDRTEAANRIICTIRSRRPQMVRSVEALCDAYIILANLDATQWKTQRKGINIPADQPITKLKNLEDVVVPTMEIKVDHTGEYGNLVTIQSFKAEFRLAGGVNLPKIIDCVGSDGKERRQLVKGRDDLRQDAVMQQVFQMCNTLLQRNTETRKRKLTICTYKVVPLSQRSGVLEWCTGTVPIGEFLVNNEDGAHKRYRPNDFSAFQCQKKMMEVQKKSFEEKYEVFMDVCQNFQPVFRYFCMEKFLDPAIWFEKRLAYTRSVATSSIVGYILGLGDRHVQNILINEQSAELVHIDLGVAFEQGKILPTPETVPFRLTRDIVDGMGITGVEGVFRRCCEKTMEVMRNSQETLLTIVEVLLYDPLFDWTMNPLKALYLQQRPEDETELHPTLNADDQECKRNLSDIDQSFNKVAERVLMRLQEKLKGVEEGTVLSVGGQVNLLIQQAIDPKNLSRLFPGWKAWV
As usually defined, the IC50 is the concentration that inhibits the measured activity by half. With `COc1cc(-n2cnc3ccc(-c4ccc(NC(=O)NCCN(C)C)cc4)cc32)cc(OC)c1OC` [TD-309, 1-(2-(dimethylamino)ethyl)-3-(4-(1-(3,4,5-trimethoxyphenyl)-1H-benzo[d]imidazol-6-yl)phenyl)urea], the IC50 was 60 nM.

For the compound `COCC(=O)Nc1ccc(-n2cnc3ccc(-c4ccc(NC(=O)NCCN(C)C)cc4)cc32)cc1` [TD-339, N-(4-(6-(4-(3-(2-(dimethylamino)ethyl)ureido)phenyl)-1H-benzo[d]imidazol-1-yl)phenyl)-2-methoxyacetamide], the IC50 stood at 10 nM.

As for `COCC(=O)Nc1cccc(-n2cnc3ccc(-c4ccc(NC(=O)NCCN(C)C)cc4)cc32)c1` [TD-344, N-(3-(6-(4-(3-(2-(dimethylamino)ethyl)ureido)phenyl)-1H-benzo[d]imidazol-1-yl)phenyl)-2-methoxyacetamide], the IC50 was 7 nM.

For `CN1CCN2C(=O)N(c3ccc(-c4ccc5ncn(-c6cccc(NS(C)(=O)=O)c6)c5c4)cc3)CC2C1` (centres unmarked) [TD-448, N-(3-(6-(4-(7-methyl-3-oxohexahydroimidazo[1,5-a]pyrazin-2(3H)-yl)phenyl)-1H-benzo[d]imidazol-1-yl)phenyl)methanesulfonamide], the IC50 was found to be 343 nM.

As for `CN(C)CCSc1ccc(-c2ccc3ncn(-c4cccc(NS(C)(=O)=O)c4)c3c2)cc1` [TD-472, N-(3-(6-(4-((2-(dimethylamino)ethyl)thio)phenyl)-1H-benzo[d]imidazol-1-yl)phenyl)methanesulfonamide], the IC50 stood at 23 nM.

As to `CN(C)CCNC(=O)Nc1ccc(-c2ccc3ncn(-c4ccc5c(c4)CCCC5)c3c2)cc1` [TD-547, 1-(2-(dimethylamino)ethyl)-3-(4-(1-(5,6,7,8-tetrahydronaphthalen-2-yl)-1H-benzo[d]imidazol-6-yl)phenyl)urea], the IC50 is 16 nM.

The target in the next test is ATM (h) (Homo sapiens (Human), UniProt Q13315). Put plainly: ATM assay at Eurofins KinaseProfiler with adjusted concentration range (IC50^II). To be noted: Table 13; assay variant (I or II) not given; read-out: IC50. It counts as biochemical.
Chain of ATM (h) (Q13315 whole entry): as above
For `COc1cc2ncn(-c3ccc4c(c3)N(S(C)(=O)=O)CC4)c2cc1-c1ccc(OCCCN(C)C)nc1` [TD-630, 3-((5-(5-methoxy-1-(1-(methylsulfonyl)indolin-6-yl)-1H-benzo[d]imidazol-6-yl)pyridin-2-yl)oxy)-N,N-dimethylpropan-1-amine], the IC50 is 386 nM.

The test is the same for the next values; noted with them: Table 13; read-out: IC50 [nM], IC50^II.
As to `CS(=O)(=O)N1CCc2ccc(-n3cnc4ccc(-c5ccc(CO)cc5)cc43)cc21` [TD-587, (4-(1-(1-(methylsulfonyl)indolin-6-yl)-1H-benzo[d]imidazol-6-yl)phenyl)methanol], the IC50 stood at 106 nM.

In the case of `CN(C)CCc1nc2cc(-c3ccc4ncn(-c5ccc6c(c5)N(S(C)(=O)=O)CC6)c4c3)ccc2[nH]1` [TD-607, N,N-dimethyl-2-(3′-(1-(methylsulfonyl)indolin-6-yl)-1H,3′H-[5,5′-bibenzo[d]imidazol]-2-yl)ethan-1-amine], the IC50 was found to be 2 nM.

Regarding `CN(C)CCCn1cc(-c2ccc3ncn(-c4ccc5c(c4)N(S(C)(=O)=O)CC5)c3n2)cn1` [TD-623, N,N-dimethyl-3-(4-(3-(1-(methylsulfonyl)indolin-6-yl)-3H-imidazo[4,5-b]pyridin-5-yl)-1H-pyrazol-1-yl)propan-1-amine], the IC50 is 237 nM.

Consider `COc1cc2ncn(-c3ccc4c(c3)N(S(C)(=O)=O)CC4)c2cc1-c1ccc(NC(=O)NCCN(C)C)cc1` [TD-634, 1-(2-(dimethylamino)ethyl)-3-(4-(5-methoxy-1-(1-(methylsulfonyl)indolin-6-yl)-1H-benzo[d]imidazol-6-yl)phenyl)urea], for which the IC50 came out at 113 nM.
